The values below come from patent US10077232B2, “Cyclic cationic lipids and methods of use” (ARBUTUS BIOPHARMA CORPORATION, priority 2010, dated 2018).

Usually pKa stands for the pH at which an ionisable group is half protonated.

One data set can be described thus: TNS assay, apparent pKa of cationic lipids in 1:57 SNALP.
Conditions: not given
For `CCCCCC1CC1CC1CC1CC1CC1CCCCCOCC(CN(C)C)OCCCCCC1CC1CC1CC1CC1CC1CCCCC` (stereo not drawn) [CP-γ-DLenDMA], the pKa was around 5.8.

Regarding `CCCCC/C=C\C/C=C\C/C=C\CCCCCC(CCCCC/C=C\C/C=C\C/C=C\CCCCC)OC(=O)CCCN(C)C` [g-Len-MC3], the pKa was around 6.1.

For the molecule `CCC1CC1CC1CC1CC1CC1CCCCCCCCOCC(CN(C)C)OCCCCCCCCC1CC1CC1CC1CC1CC1CC` (stereo not drawn) [CP-DLenDMA], the pKa is around 5.85.

Turning to `CCCCCCCCCCCC1CC1CCCCCOCC(CN(C)C)OCCCCCC1CC1CCCCCCCCCCC` (stereo not drawn) [CP-DPetroDMA], the pKa is around 5.95.

In the case of `CCC1CC1CC1CC1CC1CC1CCCCCCCCC(CCCCCCCCC1CC1CC1CC1CC1CC1CC)OC(=O)CCCN(C)C` (stereo not drawn) [CP-LenMC3], the pKa was around 6.1.

Take `CCCCCCCCC1CC1CCCCCCCCOCC(CN(C)C)OCCCCCCCCC1CC1CCCCCCCC` (stereo not drawn) [CP-DODMA]: the pKa was around 5.8.

For `CCCCCC1CC1CC1CC1CCCCCCCCOCC(CN(C)C)OCCCCCCCCC1CC1CC1CC1CCCCC` (stereo not drawn) [CP-DLinDMA], the pKa was around 5.8.

Consider `CCCCCC1CC1CC1CC1CC1CC1CCCCCC(CCCCCC1CC1CC1CC1CC1CC1CCCCC)OC(=O)CCCN(C)C` (stereo not drawn) [CP-γ-LenMC3], for which the pKa is around 6.

Staying with this data set, now noted: 1:57 SNALP with encapsulated ApoB siRNA; pH where TNS fluorescence equals 50% of total.
With `CCCCC/C=C\C/C=C\CCCCCCCCOCC(COCC(CCN(C)C)OCCCCCCCC/C=C\C/C=C\CCCCC)OCCCCCCCC/C=C\C/C=C\CCCCC` (stereo not drawn) [Compound C2-TLinDMA, reference compound], the “pKa (apparent, surface)” value is around 5.85.
